Laboratory results: patent US10308639B2, “Phosphatidylinositol 3-kinase inhibitors” (Gilead Sciences, Inc., priority 2014, dated 2019)

What was measured:
Assay type in all cases: biochemical
PI3Kδ = biological target: T1, PI3Kδ (Homo sapiens, UniProt O00329); assay: TR-FRET enzymatic activity assay, PI3Kδ; settings: Table 2a; same assay
T1 construct: made in house

PI3Kγ = biological target: T2, PI3Kγ (Homo sapiens, UniProt P48736); assay: TR-FRET enzymatic activity assay, PI3Kγ; settings: Table 2a; same assay; read-out: PI3Kγ IC50
T2 construct: made in house
T2 sequence (P48736 whole entry): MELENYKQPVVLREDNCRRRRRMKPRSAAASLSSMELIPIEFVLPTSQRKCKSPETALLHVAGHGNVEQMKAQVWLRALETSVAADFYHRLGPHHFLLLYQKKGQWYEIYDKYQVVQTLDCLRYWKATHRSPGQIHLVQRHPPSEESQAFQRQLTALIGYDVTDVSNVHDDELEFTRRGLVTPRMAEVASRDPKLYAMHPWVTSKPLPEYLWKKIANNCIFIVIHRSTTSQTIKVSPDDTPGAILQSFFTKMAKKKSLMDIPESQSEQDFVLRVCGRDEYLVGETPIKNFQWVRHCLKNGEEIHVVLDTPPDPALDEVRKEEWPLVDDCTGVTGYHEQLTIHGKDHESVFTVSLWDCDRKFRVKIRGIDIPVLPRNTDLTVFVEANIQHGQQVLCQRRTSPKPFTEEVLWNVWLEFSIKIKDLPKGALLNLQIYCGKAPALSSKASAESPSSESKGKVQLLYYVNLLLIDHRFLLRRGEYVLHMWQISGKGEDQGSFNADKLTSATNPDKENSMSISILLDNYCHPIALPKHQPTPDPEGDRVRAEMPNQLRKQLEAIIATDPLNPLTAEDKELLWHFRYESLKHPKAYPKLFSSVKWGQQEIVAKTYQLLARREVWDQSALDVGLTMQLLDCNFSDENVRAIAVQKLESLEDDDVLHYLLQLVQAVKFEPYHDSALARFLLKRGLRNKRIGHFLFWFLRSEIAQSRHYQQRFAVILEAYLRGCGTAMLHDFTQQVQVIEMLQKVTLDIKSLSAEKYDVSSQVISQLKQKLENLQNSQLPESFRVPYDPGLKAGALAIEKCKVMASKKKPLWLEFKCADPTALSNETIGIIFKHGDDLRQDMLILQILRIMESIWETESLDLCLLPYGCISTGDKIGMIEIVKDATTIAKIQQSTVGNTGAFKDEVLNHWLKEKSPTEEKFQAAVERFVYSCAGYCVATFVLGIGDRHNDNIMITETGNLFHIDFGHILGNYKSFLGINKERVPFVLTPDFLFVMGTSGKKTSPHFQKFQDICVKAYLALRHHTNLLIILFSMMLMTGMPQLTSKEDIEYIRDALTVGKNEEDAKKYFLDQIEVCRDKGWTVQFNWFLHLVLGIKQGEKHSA
Summary of the method: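 Compounds were profiled per isoform in a biochemical kinase reaction, with activity detected by time-resolved fluorescence resonance energy transfer.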

PI3Kβ = biological target: T3, PI3Kβ (Homo sapiens, UniProt P42338); assay: TR-FRET enzymatic activity assay, PI3Kβ; settings: Table 2a; same assay
T3 construct: made in house
T3 sequence (P42338 whole entry): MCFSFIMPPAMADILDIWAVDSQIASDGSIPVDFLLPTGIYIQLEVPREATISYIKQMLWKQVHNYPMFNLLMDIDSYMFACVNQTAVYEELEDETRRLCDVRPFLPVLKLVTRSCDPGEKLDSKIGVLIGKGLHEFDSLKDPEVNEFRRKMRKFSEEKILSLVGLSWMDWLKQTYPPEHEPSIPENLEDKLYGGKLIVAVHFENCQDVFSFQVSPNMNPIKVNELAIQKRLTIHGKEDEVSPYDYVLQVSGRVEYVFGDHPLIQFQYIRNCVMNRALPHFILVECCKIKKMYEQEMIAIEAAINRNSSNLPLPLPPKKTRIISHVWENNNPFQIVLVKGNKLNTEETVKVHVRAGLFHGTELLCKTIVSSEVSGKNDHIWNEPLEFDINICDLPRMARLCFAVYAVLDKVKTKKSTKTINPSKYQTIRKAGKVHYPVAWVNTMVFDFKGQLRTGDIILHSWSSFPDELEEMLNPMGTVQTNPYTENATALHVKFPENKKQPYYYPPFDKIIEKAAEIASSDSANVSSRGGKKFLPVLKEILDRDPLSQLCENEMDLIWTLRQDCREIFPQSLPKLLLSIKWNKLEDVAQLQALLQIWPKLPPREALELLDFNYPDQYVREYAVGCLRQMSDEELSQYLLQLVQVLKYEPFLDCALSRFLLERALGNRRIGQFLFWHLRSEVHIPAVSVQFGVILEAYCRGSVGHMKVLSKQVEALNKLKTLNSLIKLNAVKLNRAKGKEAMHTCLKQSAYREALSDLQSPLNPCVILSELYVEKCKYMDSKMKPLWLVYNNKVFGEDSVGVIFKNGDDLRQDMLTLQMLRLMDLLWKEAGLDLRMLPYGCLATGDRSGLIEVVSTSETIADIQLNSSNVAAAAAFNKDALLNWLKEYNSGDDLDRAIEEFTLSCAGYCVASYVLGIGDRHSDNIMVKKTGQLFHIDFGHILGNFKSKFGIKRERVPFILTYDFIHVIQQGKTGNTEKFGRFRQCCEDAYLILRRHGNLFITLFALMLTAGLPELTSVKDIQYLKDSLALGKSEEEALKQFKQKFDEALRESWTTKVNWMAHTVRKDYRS
T3 sequence (P27986 whole entry partner): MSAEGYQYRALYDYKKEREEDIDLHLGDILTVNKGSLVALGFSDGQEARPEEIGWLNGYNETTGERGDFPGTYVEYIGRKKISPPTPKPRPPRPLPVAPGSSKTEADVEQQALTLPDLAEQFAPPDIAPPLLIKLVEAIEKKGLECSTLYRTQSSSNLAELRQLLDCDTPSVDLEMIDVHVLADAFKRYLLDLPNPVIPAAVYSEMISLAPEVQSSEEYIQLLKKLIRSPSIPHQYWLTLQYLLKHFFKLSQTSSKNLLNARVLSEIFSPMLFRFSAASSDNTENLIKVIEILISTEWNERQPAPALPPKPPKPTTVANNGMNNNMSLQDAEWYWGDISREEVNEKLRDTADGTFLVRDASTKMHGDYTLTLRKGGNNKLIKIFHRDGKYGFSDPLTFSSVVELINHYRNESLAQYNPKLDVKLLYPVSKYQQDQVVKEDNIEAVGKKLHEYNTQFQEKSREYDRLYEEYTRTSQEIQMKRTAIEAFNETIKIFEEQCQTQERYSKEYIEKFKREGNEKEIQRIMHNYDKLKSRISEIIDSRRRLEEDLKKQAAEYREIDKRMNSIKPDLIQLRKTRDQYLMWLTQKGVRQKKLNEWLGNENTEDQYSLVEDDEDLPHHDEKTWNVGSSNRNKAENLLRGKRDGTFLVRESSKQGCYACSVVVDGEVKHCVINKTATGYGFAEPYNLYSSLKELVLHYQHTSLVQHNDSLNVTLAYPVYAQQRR

T1 sequence (O00329 whole entry): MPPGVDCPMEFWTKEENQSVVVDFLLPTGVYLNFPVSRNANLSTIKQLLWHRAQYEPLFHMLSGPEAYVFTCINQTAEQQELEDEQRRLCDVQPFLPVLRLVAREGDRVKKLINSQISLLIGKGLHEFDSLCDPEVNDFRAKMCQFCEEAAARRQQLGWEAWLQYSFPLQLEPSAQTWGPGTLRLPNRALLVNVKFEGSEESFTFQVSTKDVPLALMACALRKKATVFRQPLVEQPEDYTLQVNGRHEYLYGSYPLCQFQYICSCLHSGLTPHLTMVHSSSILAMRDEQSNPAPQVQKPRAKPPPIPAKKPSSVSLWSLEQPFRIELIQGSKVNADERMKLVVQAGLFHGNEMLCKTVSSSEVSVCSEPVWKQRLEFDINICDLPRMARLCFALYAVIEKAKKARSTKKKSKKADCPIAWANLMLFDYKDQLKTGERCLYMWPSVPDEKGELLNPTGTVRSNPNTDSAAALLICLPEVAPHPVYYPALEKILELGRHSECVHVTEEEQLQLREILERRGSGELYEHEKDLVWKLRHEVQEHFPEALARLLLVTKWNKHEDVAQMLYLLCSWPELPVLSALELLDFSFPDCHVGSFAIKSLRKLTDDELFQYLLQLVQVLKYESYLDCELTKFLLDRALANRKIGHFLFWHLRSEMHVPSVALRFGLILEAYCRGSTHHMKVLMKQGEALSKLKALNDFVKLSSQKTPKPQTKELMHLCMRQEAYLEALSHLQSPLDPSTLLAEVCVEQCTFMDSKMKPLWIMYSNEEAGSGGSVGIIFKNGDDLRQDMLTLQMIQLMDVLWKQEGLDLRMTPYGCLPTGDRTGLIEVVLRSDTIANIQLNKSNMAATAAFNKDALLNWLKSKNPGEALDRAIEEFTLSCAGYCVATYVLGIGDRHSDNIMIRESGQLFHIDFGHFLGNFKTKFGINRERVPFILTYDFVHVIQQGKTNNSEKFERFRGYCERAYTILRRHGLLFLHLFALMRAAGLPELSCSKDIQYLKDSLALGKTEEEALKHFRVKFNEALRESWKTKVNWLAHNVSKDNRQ
T1 sequence (P27986 whole entry partner): as the sequence (P27986 whole entry partner) above

Row | IC50 (PI3Kδ) | IC50 (PI3Kγ) | IC50 (PI3Kβ) | SMILES
1 | 110 nM | > 10000 nM | 130 nM | C[C@H](Nc1nc(N)nc(N)c1Cl)c1nc2c(C(F)F)cc(F)cc2c(=O)n1-c1cc[nH]n1 [Compound 141, (S)-2-(1-((2,6-diamino-5-chloropyrimidin-4-yl)amino)ethyl)-8-(difluoromethyl)-6-fluoro-3-(1H-pyrazol-3-yl)quinazolin-4(3H)-one]
2 | 47 nM | > 10000 nM | 35 nM | C[C@H](Nc1nc(N)nc(C(F)F)c1C#N)c1nc2c(C(F)F)cc(F)cc2c(=O)n1-c1cc[nH]n1 [Compound 142, (S)-2-amino-4-(difluoromethyl)-6-((1-(8-(difluoromethyl)-6-fluoro-4-oxo-3-(1H-pyrazol-3-yl)-3,4-dihydroquinazolin-2-yl)ethyl)amino)pyrimidine-5-carbonitrile]
3 | 3 nM | 7500 nM | 2 nM | N#Cc1c(N)nc(N)nc1N[C@H](c1nc2c(C(F)F)cc(F)cc2c(=O)n1-c1cc[nH]n1)C1CC1 [Compound 143, (S)-2,4-diamino-6-((cyclopropyl(8-(difluoromethyl)-6-fluoro-4-oxo-3-(1H-pyrazol-3-yl)-3,4-dihydroquinazolin-2-yl)methyl)amino)pyrimidine-5-carbonitrile]
4 | 190 nM | > 10000 nM | 130 nM | Nc1nc(N)c(Cl)c(N[C@H](c2nc3c(C(F)F)cc(F)cc3c(=O)n2-c2cc[nH]n2)C2CC2)n1 [Compound 144, (S)-2-(cyclopropyl((2,6-diamino-5-chloropyrimidin-4-yl)amino)methyl)-8-(difluoromethyl)-6-fluoro-3-(1H-pyrazol-3-yl)quinazolin-4(3H)-one]
5 | 46 nM | > 10000 nM | 28 nM | N#Cc1c(N[C@H](c2nc3c(C(F)F)cc(F)cc3c(=O)n2-c2cc[nH]n2)C2CC2)nc(N)nc1C(F)F [Compound 145, (S)-2-amino-4-((cyclopropyl(8-(difluoromethyl)-6-fluoro-4-oxo-3-(1H-pyrazol-3-yl)-3,4-dihydroquinazolin-2-yl)methyl)amino)-6-(difluoromethyl)pyrimidine-5-carbonitrile]
6 | 44 nM | > 10000 nM | 52 nM | Nc1nc(N)c(Cl)c(N[C@H](c2nc3c(Cl)ccc(F)c3c(=O)n2-c2cc[nH]n2)C2CC2)n1 [Compound 148, (S)-8-chloro-2-(cyclopropyl((2,6-diamino-5-chloropyrimidin-4-yl)amino)methyl)-5-fluoro-3-(1H-pyrazol-3-yl)quinazolin-4(3H)-one]
7 | 210 nM | > 10000 nM | 93 nM | Nc1nc(N)c(Cl)c(N[C@@H](CO)c2nc3c(Cl)cc(F)cc3c(=O)n2-c2cc[nH]n2)n1 [Compound 149, (R)-8-chloro-2-(1-((2,6-diamino-5-chloropyrimidin-4-yl)amino)-2-hydroxyethyl)-6-fluoro-3-(1H-pyrazol-3-yl)quinazolin-4(3H)-one]
8 | 2 nM | 3000 nM | 6 nM | C[C@H](Nc1ncnc2scc(Br)c12)c1nc2cccc(Cl)c2c(=O)n1-c1cc[nH]n1 [Compound 150, (S)-2-(1-((5-bromothieno[2,3-d]pyrimidin-4-yl)amino)ethyl)-5-chloro-3-(1H-pyrazol-3-yl)quinazolin-4(3H)-one]
9 | 5 nM | 6100 nM | 37 nM | Nc1nc(N)c(Cl)c(N[C@H](c2nc3c(F)cc(F)cc3c(=O)n2-c2cc[nH]n2)C2CC2)n1 [Compound 162, (S)-2-(cyclopropyl((2,6-diamino-5-chloropyrimidin-4-yl)amino)methyl)-6,8-difluoro-3-(1H-pyrazol-3-yl)quinazolin-4(3H)-one]
10 | 1 nM | 4200 nM | 6 nM | Nc1ncnc(N[C@H](c2nc3cccc(Cl)c3c(=O)n2-c2cc[nH]n2)C2CC2)c1Cl [Compound 165, (S)-2-(((6-amino-5-chloropyrimidin-4-yl)amino)(cyclopropyl)methyl)-5-chloro-3-(1H-pyrazol-3-yl)quinazolin-4(3H)-one]
11 | 8 nM | 680 nM | 16 nM | C[C@H](Nc1nc(N)nc(C(F)F)c1C#N)c1nc2cccc(Cl)c2c(=O)n1-c1cc[nH]n1 [Compound 166, (S)-2-amino-4-((1-(5-chloro-4-oxo-3-(1H-pyrazol-3-yl)-3,4-dihydroquinazolin-2-yl)ethyl)amino)-6-(difluoromethyl)pyrimidine-5-carbonitrile]
12 | 0.6 nM | 260 nM | 1 nM | C[C@H](Nc1nc(N)nc(N)c1C#N)c1nc2c(F)cc(F)cc2c(=O)n1-c1cc[nH]n1 [Compound 169, (S)-2,4-diamino-6-((1-(6,8-difluoro-4-oxo-3-(1H-pyrazol-3-yl)-3,4-dihydroquinazolin-2-yl)ethyl)amino)pyrimidine-5-carbonitrile]
13 | 1 nM | 436 nM | 3 nM | N#Cc1c(N)nc(N)nc1N[C@H](c1nc2c(F)cc(F)cc2c(=O)n1-c1cc[nH]n1)C1CC1 [Compound 170, (S)-2,4-diamino-6-((cyclopropyl(6,8-difluoro-4-oxo-3-(1H-pyrazol-3-yl)-3,4-dihydroquinazolin-2-yl)methyl)amino)pyrimidine-5-carbonitrile]
14 | 13 nM | > 10000 nM | 19 nM | C[C@@H](Nc1nc(N)nc(N)c1C#N)c1nc2c(Cl)cc(F)cc2c(=O)n1-c1cc[nH]n1 [Compound 175, (R)-2,4-diamino-6-((1-(8-chloro-6-fluoro-4-oxo-3-(1H-pyrazol-3-yl)-3,4-dihydroquinazolin-2-yl)ethyl)amino)pyrimidine-5-carbonitrile]
15 | 18 nM | 2000 nM | 26 nM | C[C@H](Nc1nc(N)nc(C(F)F)c1C#N)c1nc2cccc(C(F)F)c2c(=O)n1-c1cc[nH]n1 [Compound 176, (S)-2-amino-4-(difluoromethyl)-6-((1-(5-(difluoromethyl)-4-oxo-3-(1H-pyrazol-3-yl)-3,4-dihydroquinazolin-2-yl)ethyl)amino)pyrimidine-5-carbonitrile]
16 | 26 nM | 2300 nM | 29 nM | N#Cc1c(N[C@H](c2nc3cccc(C(F)F)c3c(=O)n2-c2cc[nH]n2)C2CC2)nc(N)nc1C(F)F [Compound 177, (S)-2-amino-4-((cyclopropyl(5-(difluoromethyl)-4-oxo-3-(1H-pyrazol-3-yl)-3,4-dihydroquinazolin-2-yl)methyl)amino)-6-(difluoromethyl)pyrimidine-5-carbonitrile]

Row | SMILES | IC50 (PI3Kδ) | IC50 (PI3Kγ) | IC50 (PI3Kβ)
17 | C[C@H](Nc1nc(N)nc(N)c1Cl)c1nc2c(Cl)ccc(F)c2c(=O)n1-c1cc[nH]n1 [Compound 147, (S)-8-chloro-2-(1-((2,6-diamino-5-chloropyrimidin-4-yl)amino)ethyl)-5-fluoro-3-(1H-pyrazol-3-yl)quinazolin-4(3H)-one] | 15 nM | > 10000 nM | 14 nM
18 | C[C@H](Nc1nc(N)nc(N)c1Cl)c1nc2c(F)ccc(F)c2c(=O)n1-c1cc[nH]n1 [Compound 152, (S)-2-(1-((2,6-diamino-5-chloropyrimidin-4-yl)amino)ethyl)-5,8-difluoro-3-(1H-pyrazol-3-yl)quinazolin-4(3H)-one] | 13 nM | > 10000 nM | 20 nM
19 | C[C@H](Nc1nc(N)nc(N)c1Cl)c1nc2cccc(Cl)c2c(=O)n1-c1cc(Cl)[nH]n1 [Compound 154, (S)-5-chloro-3-(5-chloro-1H-pyrazol-3-yl)-2-(1-((2,6-diamino-5-chloropyrimidin-4-yl)amino)ethyl)quinazolin-4(3H)-one] | 13 nM | 3300 nM | 100 nM
20 | C[C@H](Nc1nc(N)nc(N)c1Cl)c1nc2cccc(Cl)c2c(=O)n1-c1cc(F)[nH]n1 [Compound 155, (S)-5-chloro-2-(1-((2,6-diamino-5-chloropyrimidin-4-yl)amino)ethyl)-3-(5-fluoro-1H-pyrazol-3-yl)quinazolin-4(3H)-one] | 10 nM | 500 nM | 43 nM
21 | C[C@H](Nc1nc(N)nc(N)c1Cl)c1nc2c(Cl)cccc2c(=O)n1-c1cc[nH]n1 [Compound 156, (S)-8-chloro-2-(1-((2,6-diamino-5-chloropyrimidin-4-yl)amino)ethyl)-3-(1H-pyrazol-3-yl)quinazolin-4(3H)-one] | 9 nM | > 10000 nM | 26 nM
22 | C[C@H](Nc1nc(N)nc(N)c1Cl)c1nc2cccc(Cl)c2c(=O)n1-c1cn[nH]c1 [Compound 157, (S)-5-chloro-2-(1-((2,6-diamino-5-chloropyrimidin-4-yl)amino)ethyl)-3-(1H-pyrazol-4-yl)quinazolin-4(3H)-one] | 2 nM | 1200 nM | 15 nM
23 | C[C@H](Nc1nc(N)nc(N)c1Cl)c1nc2c(Cl)ccc(Cl)c2c(=O)n1-c1cn[nH]c1 [Compound 158, (S)-5,8-dichloro-2-(1-((2,6-diamino-5-chloropyrimidin-4-yl)amino)ethyl)-3-(1H-pyrazol-4-yl)quinazolin-4(3H)-one] | 10 nM | 5200 nM | 83 nM
24 | C[C@H](Nc1nc(N)nc(N)c1Cl)c1nc2c(F)ccc(Cl)c2c(=O)n1-c1cn[nH]c1 [Compound 159, (S)-5-chloro-2-(1-((2,6-diamino-5-chloropyrimidin-4-yl)amino)ethyl)-8-fluoro-3-(1H-pyrazol-4-yl)quinazolin-4(3H)-one] | 3 nM | 1600 nM | 22 nM
25 | C[C@H](Nc1ncnc(N)c1Cl)c1nc2cccc(Cl)c2c(=O)n1-c1cc[nH]n1 [Compound 164, (S)-2-(1-((6-amino-5-chloropyrimidin-4-yl)amino)ethyl)-5-chloro-3-(1H-pyrazol-3-yl)quinazolin-4(3H)-one] | 0.6 nM | 4300 nM | 3 nM
26 | C[C@H](Nc1ncnc2sncc12)c1nc2cccc(Cl)c2c(=O)n1-c1cc[nH]n1 [Compound 167, (S)-5-chloro-2-(1-(isothiazolo[5,4-d]pyrimidin-4-ylamino)ethyl)-3-(1H-pyrazol-3-yl)quinazolin-4(3H)-one] | 18 nM | > 10000 nM | 110 nM
